From PMC8915582, “Validated DBS method for filgotinib quantitation in rat dried blood spots and its application to a pharmacokinetic study in rats” (ADMET & DMPK, 2020)
Like-named read-outs stand apart in the source and are kept apart here.

Assays:
[1] = Stability of primary stock solutions in DMSO; assay type: physicochemical; details: primary stock in DMSO stored at -20 °C
Description: Two separate primary stock solutions of filgotinib were prepared at 1670 μg/mL in DMSO. Appropriate secondary and working stocks of filgotinib were prepared from primary stock by successive dilution of primary stock with methanol:water (80:20, v/v) to prepare the calibration curve (CC) and quality controls (QCs). The IS primary stock solution was made in DMSO at a concentration of 1000 μg/mL, which was diluted with methanol to 500 ng/mL and subsequently used as IS working stock solution. […] Working stock solutions were stored at 4 °C for 25 days.

rheumatoid arthritis = test system: rheumatoid arthritis; design: method as in PMID 26994322; details: approved pan-JAK inhibitors, moderate to severe rheumatoid arthritis; cited from earlier work
JAK1 = details: cited from earlier work
[2] = Pharmacokinetic study in rats (oral and intravenous), filgotinib quantified from dried blood spots by LC-MS/MS; assay type: in vivo; details: male, Sprague Dawley, whole blood (dried blood spots), rat, DBS blood
Description: Freshly drawn rat blood was used to prepare the DBS cards. With the help of a calibrated pipette, 25 μL of the respective spiked CC/QC blood or whole blood collected from the pharmacokinetic study (post administration of filgotinib by intravenous and oral routes) was sampled on DBS card. Spiked cards were allowed to dry at ambient room temperature for 3 h and stored appropriately in a sealed bag with desiccant in a desiccator.
Using a hole puncher (Harri-Micro-Punch®), 3 mm diameter disc was punched from the center of each DBS (FTA DMPK-C Card) card directly into micro-centrifuge tubes. To each micro-centrifuge tube, 200 μL of 0.2% formic acid enriched with 100 ng/mL of IS was added, thereafter the contents were vortex mixed for 5 min (Thermomixer®, Eppendorf) and sonicated (Elmasonic S300 H) for 15 min at ambient room temperature. After sonication, to the same micro-centrifuge, 1.0 mL of ethyl acetate was added and the mixtures were vortexed further for 3 min. The samples were centrifuged at 14,000 rpm for 3 min. Clear organic layer (800 μL) was pipetted out after centrifugation and dried under gentle stream of nitrogen (Turbovap®, Zymark®,Kopkinton, MA, USA) at 50 °C. The residue was reconstituted with 200 μL of 0.2% formic acid in acetonitrile and 150 μL clear supernatant was aliquoted into a HPLC vial and 5.0 μL was injected onto the column for LC-MS/MS analysis.
All the animal experiments were approved by Institutional Animal Ethical Committee (IAEC/JDC/2019/189R). Male Sprague Dawley rats (n=8) were procured from Vivo Biotech, Hyderabad, India. The animals were housed in Jubilant Biosys animal house facility in a temperature (22 ± 2 °C) and humidity (30-70%) controlled room (15 air changes/hour) with a 12:12 h light:dark cycles, had free access to rodent feed (Altromin Spezialfutter GmbH & Co. KG., Im Seelenkamp 20, D-32791, Lage, Germany) and water for one week before using for experimental purpose. Following ~12 h fast (during the fasting period animals had free access to water) animals were divided into two groups having four rats in each group. Group I animals (205-210) received filgotinib orally as a suspension formulation (prepared using Tween-80 and 0.5% methyl cellulose) at 10 mg/kg (strength: 1.0 mg/mL; dose volume: 10 mL/kg), whereas Group II animals (215-225 g) received filgotinib intravenously (5% DMSO, 5% Solutol:absolute alcohol (1:1, v/v) and 90% of normal saline; strength: 0.5 mg/ml; dose volume: 4 ml/kg) at 2.0 mg/kg dose. Post-dosing serial blood samples (50 μL) were collected through retro-orbital plexus into polypropylene tubes containing K2.EDTA solution as an anti-coagulant at 0.25, 0.5, 1, 2, 4, 8, 10, 12 and 24 h (for oral study) and 0.083, 0.25, 0.5, 1, 2, 4, 8 and 24 h (for intravenous study). Animals were allowed to access feed 2 h post-dosing.
Blood concentration-time data of filgotinib was analyzed by non-compartmental method and the relevant pharmacokinetic parameters namely AUC0-∞ (area under the blood concentration-time curve from time zero to infinite time), C0 (extrapolated blood concentration at time zero), Cmax (maximum blood concentration), Tmax (time to reach Cmax), Vd (volume of distribution), CL (clearance) and t½ (terminal half-life) were calculated using Phoenix WinNonlin software (version 8.1; Pharsight Corporation, Mountain View, CA). Absolute oral bioavailability (F) was calculated using this formula [Dose (i.v.) × AUC(0-∞)oral / Dose (oral) × AUC(0-∞)i.v.] × 100.

[3] = test system: rheumatoid arthritis patients; design: method as in PMID 29566740; details: monotherapy at 100 or 200 mg once daily or with methotrexate; cited from earlier work
[4] = test system: collagen-induced arthritis model; design: method as in PMID 24006460; details: post oral administration in rodents; cited from earlier work
[5] = design: method as in Dixit et al. (2020) [10]; details: rat, plasma, values in parentheses, ref Dixit et al. (2020) [10], cited from earlier work
JAK2 = details: JAK1 over JAK2; cited from earlier work

Question: With `C[C@@H]1CCN(C(=O)CC#N)C[C@@H]1N(C)c1ncnc2[nH]ccc12` [Tofacitinib, tofacitinib] as the compound, how does the “time primary stock solution found to be stable” value [1] read?
Answer: Its value is 50 days.

Question: What about the toxicities (rheumatoid arthritis) of the same compound?
Answer: The toxicities was “dose-related toxicities”.

Question: With `CCS(=O)(=O)N1CC(CC#N)(n2cc(-c3ncnc4[nH]ccc34)cn2)C1` [baricitinib] as the compound, how does the toxicities (rheumatoid arthritis) read?
Answer: Its toxicities is “dose-related toxicities”.

Question: With `O=C(Nc1nc2cccc(-c3ccc(CN4CCS(=O)(=O)CC4)cc3)n2n1)C1CC1` [filgotinib] as the compound, how does the IC50 (JAK1) read?
Answer: Its IC50 is […].

Question: What about the AUC(0-inf) ([2]; intravenous, 2.0 mg/kg) of the same compound?
Answer: Its AUC(0-inf) is 1800 ± 188 ng·h/mL.

Question: What about the Vd ([2]; intravenous, 2.0 mg/kg) of the same compound?
Answer: Its Vd is 4.17 ± 0.33 L/kg.

Question: And the clearance ([2]; intravenous, 2.0 mg/kg)?
Answer: Its clearance is 18.7 ± 1.86 mL/min/kg.

Question: What about the half-life ([2]; intravenous, 2.0 mg/kg) of the same compound?
Answer: Its half-life is 3.52 ± 0.23 h.

Question: What about the C0 ([2]; intravenous, 2.0 mg/kg, extrapolated concentration at time zero) of the same compound?
Answer: Its C0 is 1600 ± 55.5 ng/mL.

Question: And the bioavailability ([2]; oral 10 mg/kg vs intravenous 2.0 mg/kg, read-out: F (absolute oral bioavailability))?
Answer: Its bioavailability is 42.5%.

Question: And the AUC(0-inf) ([2]; oral, 10 mg/kg)?
Answer: The AUC(0-inf) was 3720 ± 329 ng·h/mL.

Question: And the Cmax ([2]; oral, 10 mg/kg)?
Answer: Its Cmax is 804 ± 78.4 ng/mL.

Question: And the Tmax ([2]; oral, 10 mg/kg)?
Answer: Its Tmax is 0.5 h.

Question: And the half-life ([2]; oral, 10 mg/kg)?
Answer: The half-life was 4.87 ± 0.45 h.

Question: What about the “time primary stock solution found to be stable” value [1] of the same compound?
Answer: The value was 50 days.

Question: And the “tolerability, efficacy and safety in Phase-3 clinical trials” value [3]?
Answer: Its value is “well tolerated, showed efficacy and was found to be safe”.

Question: And the “disease progression in a collagen-induced arthritis model” value [4]?
Answer: Its value is “dose-dependent reduction of disease progression”.

Question: And the “AUC(0-∞)” value ([5]; intravenous, 2.0 mg/kg)?
Answer: The value was 1912 ± 123 ng·h/mL.

Question: What about the C0 ([5]; intravenous, 2.0 mg/kg) of the same compound?
Answer: Its C0 is 1767 ± 128 ng/mL.

Question: And the CL ([5]; intravenous, 2.0 mg/kg)?
Answer: The CL was 17.4 ± 1.08 mL/min/kg.

Question: And the T1/2 ([5]; intravenous, 2.0 mg/kg)?
Answer: Its T1/2 is 3.56 ± 0.30 h.

Question: And the Vd ([5]; intravenous, 2.0 mg/kg)?
Answer: The Vd was 5.41 ± 0.77 L/kg.

Question: And the “AUC(0-∞)” value ([5]; oral, 10 mg/kg)?
Answer: Its value is 3475 ± 547 ng·h/mL.

Question: What about the Cmax ([5]; oral, 10 mg/kg) of the same compound?
Answer: Its Cmax is 802 ± 149 ng/mL.

Question: And the “F (absolute oral bioavailability)” value ([5]; oral, 10 mg/kg)?
Answer: Its value is 36.3%.

Question: And the T1/2 ([5]; oral, 10 mg/kg)?
Answer: Its T1/2 is 4.72 ± 0.24 h.
